Results on 29 compounds are retold here after US20240299385A1 (ReWind Therapeutics NV, priority 2021, published 2024).

For this experiment, the target named is T1, human GPR17 receptor (Homo sapiens, UniProt Q13304).
T1 construct: host or cells: HEK-293
Nature of the experiment: Calcium mobilization functional assay (Fluo-8, FLIPR TETRA) in HEK-293 hGPR17 (Gα-q assay). The experiment is classed as cell-based. Conditions: antagonism of MDL29,951 (~EC80) induced Ca2+ signal; cell line (HEK-293 hGPR17 or HEK-293 Suchi5 hGPR17) not given. Put shortly:
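Fluo-8-loaded HEK-293 hGPR17 cells (60 min dye loading, room temperature) were preincubated with compound for twenty minutes, then challenged with agonist MDL29,951 at ~EC80, 500 nM. Intracellular calcium release via Gα-q was recorded as FLIPR fluorescence for a further 2 minutes; compounds tested in duplicate.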
A general note: Calcium flux is commonly read through the fluorescence of an indicator in the cells.

Structures are written as SMILES. A value given as a limit tells only on which side of the number the result lay.

T1 sequence (Q13304 whole entry): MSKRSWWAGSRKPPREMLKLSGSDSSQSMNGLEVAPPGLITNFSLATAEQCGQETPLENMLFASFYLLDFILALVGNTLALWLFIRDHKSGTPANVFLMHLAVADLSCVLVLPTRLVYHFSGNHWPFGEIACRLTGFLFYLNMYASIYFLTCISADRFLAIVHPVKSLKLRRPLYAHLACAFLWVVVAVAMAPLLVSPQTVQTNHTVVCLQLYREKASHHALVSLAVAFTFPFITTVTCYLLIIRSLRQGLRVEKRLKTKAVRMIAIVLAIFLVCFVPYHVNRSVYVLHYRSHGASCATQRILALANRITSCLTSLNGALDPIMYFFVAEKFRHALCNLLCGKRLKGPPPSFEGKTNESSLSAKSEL

As for `N#Cc1ccc(NS(=O)(=O)c2c[nH]c(-c3cccc(Br)n3)c2)c(F)c1` [Cpd 374, 5-(6-bromo-2-pyridyl)-N-(4-cyano-2-fluoro-phenyl)-1H-pyrrole-3-sulfonamide], the IC50 – broadly, the concentration that inhibits the measured activity by half – is below 0.5 µM.

With `O=S(=O)(Nc1cnc(C(F)(F)F)s1)c1c[nH]c(-c2ccccc2)c1` [Cpd 375, 5-phenyl-N-[2-(trifluoromethyl)thiazol-5-yl]-1H-pyrrole-3-sulfonamide], the IC50 lay within 5 to 50 µM.

Regarding `O=S(=O)(Nc1cc(Cl)c(C(F)(F)F)cc1F)c1c[nH]c(-c2ccccc2)c1` [Cpd 378, N-[5-chloro-2-fluoro-4-(trifluoromethyl)phenyl]-5-phenyl-1H-pyrrole-3-sulfonamide], the half-inhibitory concentration (IC50) was 0.5 to 5 µM.

In the case of `O=S(=O)(Nc1cc(Cl)c(C(F)(F)F)cc1F)c1c[nH]c(-c2ccccn2)c1` [Cpd 379, N-[5-chloro-2-fluoro-4-(trifluoromethyl)phenyl]-5-pyridin-2-yl-1H-pyrrole-3-sulfonamide], the IC50 was in the range of 0.5 to 5 µM.

Consider `N#Cc1ccc(NS(=O)(=O)c2c[nH]c(-c3cccc4cccnc34)c2)c(F)c1` [Cpd 380, N-(4-cyano-2-fluorophenyl)-5-(guinolin-8-yl)-1H-pyrrole-3-sulfonamide], for which the IC50 was below 0.5 µM.

As to `N#Cc1ccc(NS(=O)(=O)c2c[nH]cc2-c2cccc3ccccc23)c(F)c1` [Cpd 381, N-(4-cyano-2-fluorophenyl)-4-naphthalen-1-yl-1H-pyrrole-3-sulfonamide], the IC50 lay in the range of 5 to 50 µM.

Consider `N#Cc1ccc(NS(=O)(=O)c2c[nH]c(-c3cccc4ccccc34)c2)c(F)c1` [Cpd 382, N-(4-cyano-2-fluorophenyl)-5-naphthalen-1-yl-1H-pyrrole-3-sulfonamide], for which the IC50 lay in the range of 0.5 to 5 µM.

Take `Cc1c(C(F)(F)F)ccc(NS(=O)(=O)c2c[nH]c(-c3ccccn3)c2)c1F` [Cpd 383, N-[2-fluoro-3-methyl-4-(trifluoromethyl)phenyl]-5-pyridin-2-yl-1H-pyrrole-3-sulfonamide]: the IC50 was 5 to 50 µM.

Take `Cc1ccccc1Cc1c[nH]cc1S(=O)(=O)Nc1ccc(C#N)cc1F` [Cpd 384, N-(4-cyano-2-fluorophenyl)-4-[(2-methylphenyl)methyl]-1H-pyrrole-3-sulfonamide]: the IC50 is 0.5 to 5 µM.

With `Cc1ccc(Cc2c[nH]cc2S(=O)(=O)Nc2ccc(C#N)cc2F)cc1` [Cpd 385, N-(4-cyano-2-fluorophenyl)-4-[(4-methylphenyl)methyl]-1H-pyrrole-3-sulfonamide], the IC50 lay within 5 to 50 µM.

For `N#Cc1ccc(NS(=O)(=O)c2c[nH]cc2Cc2ccccc2C(F)(F)F)c(F)c1` [Cpd 386, N-(4-cyano-2-fluorophenyl)-4-[[2-(trifluoromethyl)phenyl]methyl]-1H-pyrrole-3-sulfonamide], the IC50 fell in the range of 5 to 50 µM.

Turning to `N#Cc1ccc(NS(=O)(=O)c2c[nH]cc2Cc2ccc(C(F)(F)F)cc2)c(F)c1` [Cpd 387, N-(4-cyano-2-fluorophenyl)-4-[[4-(trifluoromethyl)phenyl]methyl]-1H-pyrrole-3-sulfonamide], the IC50 lay within 5 to 50 µM.

As for `N#Cc1ccc(NS(=O)(=O)c2c[nH]cc2Cc2ccccc2OC(F)(F)F)c(F)c1` [Cpd 388, N-(4-cyano-2-fluorophenyl)-4-[[2-(trifluoromethoxy)phenyl]methyl]-1H-pyrrole-3-sulfonamide], the IC50 was in the range of 0.5 to 5 µM.

Regarding `N#Cc1ccc(NS(=O)(=O)c2c[nH]cc2Cc2ccc(OC(F)(F)F)cc2)c(F)c1` [Cpd 389, N-(4-cyano-2-fluorophenyl)-4-[[4-(trifluoromethoxy)phenyl]methyl]-1H-pyrrole-3-sulfonamide], the half-inhibitory concentration (IC50) lay within 5 to 50 µM.

On to `N#Cc1ccc(NS(=O)(=O)c2c[nH]cc2Cc2cccc(Br)c2)c(F)c1` [Cpd 391, 4-[(3-bromophenyl)methyl]-N-(4-cyano-2-fluorophenyl)-1H-pyrrole-3-sulfonamide], for which the IC50 was below 0.5 µM.

For `N#Cc1ccc(NS(=O)(=O)c2c[nH]cc2Cc2ccsc2)c(F)c1` [Cpd 392, N-(4-cyano-2-fluorophenyl)-4-(thiophen-3-ylmethyl)-1H-pyrrole-3-sulfonamide], the IC50 was below 0.5 µM.

Take `O=S(=O)(Nc1cc(F)c(C(F)(F)F)cc1F)c1c[nH]c(-c2cc(F)ccc2F)c1` [Cpd 393, 5-(2,5-difluorophenyl)-N-[2,5-difluoro-4-(trifluoromethyl)phenyl]-1H-pyrrole-3-sulfonamide]: the 50% inhibitory concentration (IC50) was below 0.5 µM.

As for `COc1c(Cl)cccc1-c1cc(S(=O)(=O)Nc2ccc(C#N)cc2F)c[nH]1` [Cpd 394, 5-(3-chloro-2-methoxyphenyl)-N-(4-cyano-2-fluorophenyl)-1H-pyrrole-3-sulfonamide], the 50% inhibitory concentration (IC50) is below 0.5 µM.

On to `N#Cc1ccc(NS(=O)(=O)c2c[nH]c(-c3nccc4ccccc34)c2)c(F)c1` [Cpd 396, N-(4-cyano-2-fluorophenyl)-5-isoquinolin-1-yl-1H-pyrrole-3-sulfonamide], for which the half-maximal inhibitory concentration (IC50) was below 0.5 µM.

As to `N#Cc1ccc(NS(=O)(=O)c2c[nH]c(-c3ccccc3OC3CC3)c2)c(F)c1` [Cpd 397, N-(4-cyano-2-fluorophenyl)-5-(2-cyclopropyloxyphenyl)-1H-pyrrole-3-sulfonamide], the half-inhibitory concentration (IC50) lay within 0.5 to 5 µM.

As to `N#Cc1ccc(NS(=O)(=O)c2c[nH]cc2-c2cccs2)c(F)c1` [Cpd 398, N-(4-cyano-2-fluorophenyl)-4-thiophen-2-yl-1H-pyrrole-3-sulfonamide], the half-maximal inhibitory concentration (IC50) lay in the range of 0.5 to 5 µM.

Consider `O=S(=O)(Nc1cc(OC(F)F)c(Cl)cc1F)c1c[nH]c(-c2ccccc2)c1` [Cpd 399, N-[4-chloro-5-(difluoromethoxy)-2-fluorophenyl]-5-phenyl-1H-pyrrole-3-sulfonamide], for which the 50% inhibitory concentration (IC50) lay in the range of 0.5 to 5 µM.

For the compound `N#Cc1ccc(NS(=O)(=O)c2c[nH]cc2-c2ccsc2)c(F)c1` [Cpd 400, N-(4-cyano-2-fluorophenyl)-4-thiophen-3-yl-1H-pyrrole-3-sulfonamide], the IC50 was in the range of 0.5 to 5 µM.

As to `Cc1cc(-c2c[nH]cc2S(=O)(=O)Nc2ccc(C#N)cc2F)cs1` [Cpd 401, N-(4-cyano-2-fluorophenyl)-4-(5-methylthiophen-3-yl)-1H-pyrrole-3-sulfonamide], the IC50 is below 0.5 µM.

Consider `N#Cc1ccc(NS(=O)(=O)c2c[nH]cc2-c2cccc(C3CC3)c2)c(F)c1` [Cpd 402, N-(4-cyano-2-fluorophenyl)-4-(3-cyclopropylphenyl)-1H-pyrrole-3-sulfonamide], for which the IC50 is 5 to 50 µM.

Turning to `O=S(=O)(Nc1cc(F)c(OC(F)F)cc1F)c1c[nH]c(-c2nccs2)c1` [Cpd 403, N-[4-(difluoromethoxy)-2,5-difluorophenyl]-5-(1,3-thiazol-2-yl)-1H-pyrrole-3-sulfonamide], the IC50 is below 0.5 µM.

Turning to `O=S(=O)(Nc1cc(F)c(OC(F)F)cc1F)c1c[nH]c(-c2ncccc2F)c1` [Cpd 404, N-[4-(difluoromethoxy)-2,5-difluorophenyl]-5-(3-fluoropyridin-2-yl)-1H-pyrrole-3-sulfonamide], the IC50 was below 0.5 µM.

Regarding `N#Cc1cc(F)c(NS(=O)(=O)c2c[nH]cc2Cc2ccccc2)cc1F` [Cpd 407, 4-benzyl-N-(4-cyano-2,5-difluorophenyl)-1H-pyrrole-3-sulfonamide], the IC50 is below 0.5 µM.

Consider `O=S(=O)(Nc1ncc(OC(F)F)cc1F)c1c[nH]c(-c2ccccc2)c1` [Cpd 408, N-[5-(difluoromethoxy)-3-fluoropyridin-2-yl]-5-phenyl-1H-pyrrole-3-sulfonamide], for which the IC50 fell in the range of 0.5 to 5 µM.
